Paper PMC8397956 (Molecules, 2021)
Where two headings read alike, the source gives them in different places. Marks after values point to notes of the source that are not given here.

Assays:
[1] = biological target: T1, E. coli H6-DXR (Escherichia coli, UniProt P45568); experiment: Inhibition of E. coli His-tagged DXR (photometric NADPH assay); format: biochemical
T1 construct: His6 (H6)
Description: The inhibition potency of α,α-difluorophosphonohydroxamic acid derivatives was characterized by their IC50 value that was determined as previously described. […] Residual activity was measured after initiating the enzymatic reaction by addition of DXP.
The assays were performed at 37 °C in a 50 mM Tris/HCl buffer pH 7.5 containing 3 mM MgCl2 and 2 mM DTT. The concentrations of DXP and NADPH were 480 µM and 160 µM respectively. The decrease of absorbance at 340 nm due to NADPH oxidation was monitored to determine the initial rates. The retained values were the average of at least two measurements. The relative average deviation must be lower than 4%.
Inhibitor concentrations in the stock solutions were verified by spectrophotometric phosphorus determination. The study compounds 9b and 10a, 10b were tested against E. coli DXR using a photometric assay that was described earlier. H-DXR was pre-incubated during 2 min in the presence of the inhibitors 9b, 10a and 10b at different concentrations and NADPH. DXP was then added to measure the residual activity. The inhibitory potential of the tested compounds was quantified by determining the IC50 values. They were obtained by plotting the percentage of residual activity versus the Log of inhibitor concentration.

[2] = tested on: E. coli XL1 Blue; experiment: Growth inhibition of E. coli XL1 Blue, paper disc diffusion on LB solid medium; format: cell-based, Escherichia coli; settings: for bacterial growth inhibition (in words) / colonies of tolerant bacteria in the inhibition zone: paper disc diffusion; for bacterial growth inhibition (in words): Figure 1A; for Growth Inhibition Zone: 24 h at 37 °C
Description: The antimicrobial activity of α,α-difluorophosphonate 9a and 10 was determined using the paper disc diffusion method and was compared with the antimicrobial activity of the non-fluorinated phosphonate and phosphate compounds 3, 4 et 6. The diameters of the inhibition zone are given with respect to the amount of inhibitor deposited on the disc (Table 2).
(§1) The antimicrobial activity of hydroxamic acids 9b, 10a and 10b against E. coli XL1 Blue and fosmidomycin-resistant strain E. coli FosR [7], was determined using the paper disc diffusion method. LB agar plates (9 cm diameter) were inoculated with a suspension of bacteria (200 μL, mid-exponential phase). […] Growth inhibition was examined after 24 h incubation at 37 °C.

[3] = tested on: Plasmodium falciparum (K1 strain); design: method as in PMID 20568776; settings: racemic mixtures, intraerythrocytic forms, ref [14]; cited from earlier work
[4] = biological target: T1, E. coli H6-DXR; settings: cited from earlier work
[5] = tested on: E. coli XL1 Blue; settings: cited from earlier work
[6] = tested on: fosmidomycin-resistant strain E. coli FosR; experiment: Growth inhibition of fosmidomycin-resistant E. coli FosR, paper disc diffusion; format: cell-based, Escherichia coli; settings: GlpT/UhpT transporters inoperative, Figure 1B
Description: as §1

T1 sequence (P45568 whole entry): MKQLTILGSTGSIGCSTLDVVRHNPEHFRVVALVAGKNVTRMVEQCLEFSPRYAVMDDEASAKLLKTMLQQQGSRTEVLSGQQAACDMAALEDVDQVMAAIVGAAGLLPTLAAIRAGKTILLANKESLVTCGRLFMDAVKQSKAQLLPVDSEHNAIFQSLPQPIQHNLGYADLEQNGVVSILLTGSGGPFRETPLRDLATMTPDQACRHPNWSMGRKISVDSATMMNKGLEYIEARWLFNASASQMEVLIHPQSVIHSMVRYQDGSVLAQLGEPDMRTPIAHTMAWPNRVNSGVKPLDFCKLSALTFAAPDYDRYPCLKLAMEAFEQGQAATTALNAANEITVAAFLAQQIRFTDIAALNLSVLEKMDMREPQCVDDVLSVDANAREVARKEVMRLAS

O=C(CCC(F)(F)P(=O)(O)O)NO [Compound 10a, (1,1-Difluoro-4-(hydroxyamino)-4-oxobutyl)phosphonic acid]
IC50 [1]: 4600 nM
fold less efficient than N-methylated analogue 10b ([1]; ratio of IC50 values on E. coli DXR): 280
bacterial growth inhibition (in words) [2]: no inhibition was observed

CC(=O)N(O)CCC(F)P(=O)(O)O (stereo not drawn) [Compound 7]
activity compared with parent compounds fosmidomycin and 4b [3]: more active

O=C(CCOP(=O)(O)O)NO [Compound 6a]
IC50 ([4]; ref [9]): 2600 nM
Growth Inhibition Zone ([5]; 400 nmoles/disc, ref [9]): <10 * mm

O=CN(O)CCCP(=O)(O)O [Compound 3a, fosmidomycin]
Growth Inhibition Zone ([2]; 2 nmoles/disc): 35 mm
colonies of tolerant bacteria in the inhibition zone [2]: colonies of tolerant bacteria

O=C(CCCP(=O)(O)O)NO [Compound 4a]
IC50 ([4]; ref [8]): 180 nM
Growth Inhibition Zone ([5]; 400 nmoles/disc, ref [8]): 12 ** mm

CN(O)C(=O)CCCP(=O)(O)O [Compound 4b]
Growth Inhibition Zone ([5]; 80 nmoles/disc, ref [8]): 30 ** mm

CC(=O)N(O)CCC(F)(F)P(=O)(O)O [Compound 9b, (1,1-Difluoro-3-(N-hydroxyacetamido)propyl)phosphonic acid]
bacterial growth inhibition (in words) [6]: No growth inhibition
IC50 [1]: 9 nM
Growth Inhibition Zone ([2]; 2 nmoles/disc): 15 mm
colonies of tolerant bacteria in the inhibition zone [2]: did not appear
bacterial growth inhibition (in words) [2]: quite effective to inhibit bacterial growth

CN(O)C(=O)CCC(F)(F)P(=O)(O)O [Compound 10b, (1,1-Difluoro-4-(hydroxy(methyl)amino)-4-oxobutyl)phosphonic acid]
IC50 [1]: 17 nM
Growth Inhibition Zone ([2]; 1.5 nmoles/disc): 20 mm
colonies of tolerant bacteria in the inhibition zone [2]: did not appear
bacterial growth inhibition (in words) [2]: quite effective to inhibit bacterial growth

CC(=O)N(O)CCOP(=O)(O)O [Compound 5b]
IC50 ([4]; ref [9]): 77 nM

O=CN(O)CCOP(=O)(O)O [Compound 5a, fosfoxacin]
IC50 ([4]; ref [9]): 342 nM

CC(=O)N(O)CCCP(=O)(O)O [Compound 3b, FR-900098]
IC50 [1]: 4 nM
Growth Inhibition Zone ([5]; 2 nmoles/disc, ref [9]): 32 * mm

CN(O)C(=O)CCC(F)P(=O)(O)O (stereo not drawn) [Compound 8]
activity compared with parent compounds fosmidomycin and 4b [3]: more active

CN(O)C(=O)CCOP(=O)(O)O [Compound 6b]
IC50 ([4]; ref [9]): 46 nM
Growth Inhibition Zone ([5]; 160 nmoles/disc, ref [9]): 20 * mm
